In patent US20250297224A1, “CARDIOMYOCYTES AND COMPOSITIONS AND METHODS FOR PRODUCING THE SAME” (President and Fellows of Harvard College, priority 2021, published 2025):

Assays:
Assay type in all cases: cell-based, human
[1] = tested on: iPSC-derived cardiomyocytes; assay: Protein expression of cardiac markers in iPSC-CMs, 3D suspension culture, FOXO/FOXM1 modulators; conditions: for protein expression of TNNI3 / protein expression of TNNT2: 3D suspension culture
Excerpt: (§1) FOXO activation with LOM612 enhances protein (FIG. 19B) but not RNA expression of Kir2.1 (FIG. 19A). FOXO activation increases the upstroke velocity (spike slope) (FIG. 19C).
(§2) Cell lines used included UCSD142i-86-1 iPSC line (WiCell), Gibco human episomal iPSC line (Thermo), and DiPS 1016SevA iPSC line (Harvard. Cardiomyocytes are obtained utilizing a differential protocol adapted from Lian et al. Nat Protoc 2013: 8 (1): 162-75 (FIG. 16A). The differentiation protocol may be modified utilizing modulators of FOXO and FOXM1 (FIG. 16B). Cardiomyocytes may be characterized as being contractility mature, metabolically mature, or electrophysiologically mature (FIG. 16C).

[2] = tested on: iPSC-derived cardiomyocytes; assay: Contractile and electrophysiological properties by multielectrode array analysis, FOXO/FOXM1 modulators; conditions: for contractility: iPSC-derived cardiomyocytes
Excerpt: as §2
The contractile properties of cardiomyocytes improved with FOXO activation. FOXO activation with LOM612 or FOXM1 inhibition with RCM-1 increases protein expression of cardiac troponin T (TNNT2) and increases mean beat amplitude by multielectrode array analysis (FIG. 17). […] AS1842856 may be applied in an amount of about 0.2 to 1 μM.
(§3) FOXO activation improved electrophysiological properties of PSC-CMs. FOXO activation with LOM612 enhances protein, but not RNA expression of Kir2.1 (FIGS. 19A-19B). FOXO activation increases the upstroke velocity (spike slope) (FIG. 19C).

PSC-CMs [3] = assay: Oxygen consumption rate and respiratory reserve capacity of PSC-CMs
Excerpt: FOXO activation with LOM612 (FIG. 18A) or FOXM1 inhibition with RCM-1 (FIG. 18B) increases maximum oxygen consumption rate (OCR) and respiratory reserve capacity, while inhibition of FOXO with AS1842856 (FIG. 18C) inhibits maximum OCR and respiratory reserve capacity.
In some embodiments, the cardiomyocytes are metabolically mature cardiomyocytes. In some aspects, a cardiomyocyte has increased metabolic activity as compared to an immature cardiomyocyte. In some embodiments, a cardiomyocyte has increased oxygen consumption and/or extracellular acidification rate as compared to immature cardiomyocytes. In some embodiments, a cardiomyocyte has increased respiratory reserve as compared to immature cardiomyocytes. Metabolic maturity may be quantified using a Seahorse mito stress metabolic assay (Agilent). The assay may be used to measure oxygen consumption rate and extracellular acidification rate in response to one or more compounds (e.g., small molecule compounds) that affect mitochondrial function.
FOXO activation with LOM612 or FOXM1 inhibition with RCM-1 increases maximum oxygen consumption rate (OCR) and respiratory reserve capacity, while inhibition of FOXO with AS1842856 inhibits maximum OCR and respiratory reserve capacity (FIG. 18).

PSC-CMs [4] = assay: RNA expression of cardiac markers in PSC-CMs
Excerpt: as §1, §3

iPSC-CMs [5] = assay: Flow cytometry of marker expression in iPSC-CMs differentiated and treated in 3D culture
Excerpt: Nutlin-3a increases the percentage (FIG. 12A) and mean fluorescence intensity (MFI) (FIG. 12B) of TNNT2 in iPSC-CMs as well as the percentage (FIG. 12C) and MFI (FIG. 12D) of Kir2.1 in TNNT2+iPSC-CMs by flow cytometry. Nutlin-3a increases the percentage (FIG. 12E) and MFI (FIG. 12F) of p53 in TNNT2+iPSC-CMs. Nutlin-3a increases mean beat amplitude (FIG. 12G) and mean spike amplitude (FIG. 12H) of iPSC-CMs as quantified using a multielectrode array. *p<0.05. **p<0.01. ***p<0.001. ****p<0.0001 by one-way ANOVA. iPSC-CMs differentiated and treated in 3D. […]
(§4) Kir2.1 is the ion channel largely responsible for maintaining the resting membrane potential via the inward rectifier current (IK1); at lower levels, abnormal membrane depolarization can increase the risk of ventricular arrhythmias (8, 9). Nutlin-3a but not Torin1 treatment of iPSC-CMs increased expression of TNNT2 and Kir2.1 (FIG. 12A-12D). Also, Nutlin-3a but not Torin1 increased expression of p53, which may support induction of a quiescent state (FIG. 12E-12F).

iPSC-CMs [6] = assay: Multielectrode array (Axion Maestro Edge) of iPSC-CMs in 3D culture; conditions: iPSC-CMs differentiated and treated in 3D
Excerpt: Nutlin-3a increases the percentage (FIG. 12A) and mean fluorescence intensity (MFI) (FIG. 12B) of TNNT2 in iPSC-CMs as well as the percentage (FIG. 12C) and MFI (FIG. 12D) of Kir2.1 in TNNT2+iPSC-CMs by flow cytometry. Nutlin-3a increases the percentage (FIG. 12E) and MFI (FIG. 12F) of p53 in TNNT2+iPSC-CMs. Nutlin-3a increases mean beat amplitude (FIG. 12G) and mean spike amplitude (FIG. 12H) of iPSC-CMs as quantified using a multielectrode array. *p<0.05. **p<0.01. ***p<0.001. ****p<0.0001 by one-way ANOVA. iPSC-CMs differentiated and treated in 3D.
as §4

iPSC-CMs [7] = assay: Resting membrane potential of iPSC-CMs in 2D culture; conditions: Torin1 200 nM, compared to control (DMSO)
Excerpt: Pluripotent stem cell-derived cardiomyocytes (PSC-CMs) offer a regenerative approach to treat patients with systolic heart failure. However, delivery of immature PSC-CMs may increase the risk of ventricular arrhythmias, which is a barrier to clinical translation (1, 2). It was recently identified that inhibition of the mechanistic target of rapamycin (mTOR) pathway improves maturation of cardiomyocytes derived from induced pluripotent stem cells (iPSCs) in two-dimensional (2D) culture (3). […] This could greatly simplify the manufacturing process compared to other protocols that take 2 months to produce mature PSC-CMs with similar resting membrane potentials (4).

| SMILES | protein expression of TNNI3 [1] | protein expression of TNNT2 [1] | contractility [2] | maximum oxygen consumption rate (OCR) (PSC-CMs [3]) | respiratory reserve capacity (PSC-CMs [3]) | mean beat amplitude by multielectrode array analysis ([2]; 3D suspension culture) | mean fluorescence intensity (MFI) of Kir2.1 (iPSC-CMs [5]; flow cytometry) | mean fluorescence intensity (MFI) of p53 (iPSC-CMs [5]; flow cytometry) | percentage of Kir2.1 in TNNT2+ iPSC-CMs (iPSC-CMs [5]; flow cytometry) | percentage of TNNT2 in iPSC-CMs (% TNNT2+) (iPSC-CMs [5]; flow cytometry) | percentage of p53 in TNNT2+ iPSC-CMs (iPSC-CMs [5]; flow cytometry) | expression of Kir2.1 (iPSC-CMs [5]; iPSC-CMs) | expression of p53 (iPSC-CMs [5]; iPSC-CMs) | also measured |
| --- | --- | --- | --- | --- | --- | --- | --- | --- | --- | --- | --- | --- | --- | --- |
| CCn1cc(C(=O)O)c(=O)c2c(N)c(F)c(NC3CCCCC3)cc21 [AS1842856] | decreases | decreases | poorly contractile cells | inhibits | inhibits |  |  |  |  |  |  |  |  | beating of spheroids ([2]; 3D suspension culture): non-beating spheroids; cardiac marker RNA levels (PSC-CMs [4]): reduce |
| CN(C)c1nsc2c1C(=O)c1ccccc1C2=O [LOM612] | increases | increases | enhances | increases | increases | increases |  |  |  |  |  |  |  | protein expression of Kir2.1 ([1]; PSC-CMs): enhances; upstroke velocity (spike slope) ([2]; FOXO activation, PSC-CMs): increases |
| COc1ccc(C2=N[C@@H](c3ccc(Cl)cc3)[C@@H](c3ccc(Cl)cc3)N2C(=O)N2CCNC(=O)C2)c(OC(C)C)c1 [Nutlin-3a, nutlin-3a] |  |  |  |  |  |  | increases | increases | increases | increases | increases | increased | increased | mean fluorescence intensity (MFI) of TNNT2 (iPSC-CMs [5]; flow cytometry): increases; expression of TNNT2 (iPSC-CMs [5]; iPSC-CMs): increased; mean beat amplitude (iPSC-CMs [6]): increases; mean spike amplitude (iPSC-CMs [6]): increases |
| O=c1c(O)c(-c2ccc(O)c(O)c2)oc2cc(O)cc(O)c12 [Quercetin, quercetin] |  |  |  |  |  |  | increases | increases | increases |  | increases | increased | increased |  |
| N#Cc1c(-c2cccs2)cc(-c2cccs2)nc1SCC(=O)c1cccs1 [RCM1] | increases | increases |  | increases | increases | increases | increases |  | increases | increases |  | increased |  | purity of iPSC-CMs (iPSC-CMs [5]): increased |
| CCC(=O)N1CCN(c2ccc(-n3c(=O)ccc4cnc5ccc(-c6cnc7ccccc7c6)cc5c43)cc2C(F)(F)F)CC1 [Torin1] |  |  |  |  |  |  |  |  |  |  |  |  |  | resting membrane potential (iPSC-CMs [7]): decreased |
